Values after ≈ are worked out from the molar mass of the structure shown.
Assays:
Homo sapiens = organism: Homo sapiens; assay: Induction of elastase release in human PMNC assessed as increase in p-nitroanilide formation; format: functional
[1] = Antiinflammatory activity against cytochalasin-activated human PMNC assessed as inhibition of platelet activating factor-induced elastase release by p-nitroanilide formation assay; format: functional

Compound | Activity (Homo sapiens) | IC50 [1]
C[C@H]1O[C@@H](O[C@H]2[C@@H](O)C[C@H](O[C@H]3[C@@H](O)C[C@H](O[C@H]4CC[C@@]5(C)[C@H](CC[C@@H]6[C@@H]5CC[C@]5(C)[C@@H](C7=CC(=O)OC7)CC[C@]65O)C4)O[C@@H]3C)O[C@@H]2C)C[C@H](O)[C@@H]1O | Dose-dependent effect | –
C[C@@H]1C(=O)O[C@H]2[C@H](O)[C@@]34[C@H]5C[C@@H](C(C)(C)C)[C@]36[C@@H](OC(=O)[C@@H]6O)O[C@@]4(C(=O)O5)[C@@]12O [GINKOLIDE B] | – | 72 µg/mL (≈ 170 µM)
